The record followed here is US20150024072A1, “METHODS OF TREATING A SKIN CONDITION WITH MALVA NEGLECTA” (Johnson & Johnson Consumer Companies, Inc., priority 2013, published 2015).

The subject of this test is Human dermal fibroblasts. In words: Hyaluronic Acid (HA) Secretion (Assay 4, ELISA). As to conditions: 20 ng/ml (positive control), 48 hours post-treatment. Format: cell-based. Here is the method:
Human dermal fibroblasts were maintained in flask in growth medium consisting of DMEM plus 10% fetal bovine serum, 50 units/ml penicillin and 50 μg/ml streptomycin. Cells were seeded at 10,000 cells per well in a 96 well plate. After 24 hours incubation, cells were treated with test articles dissolved in DMSO or DMSO without extracts (as control) prepared in DMEM+2% FBS. Culture media was collected at 48 hours post-treatment, and measured for HA (Hyaluronic acid) secretion using Hyaluronan ELISA kit (Echelon, cat. #K-1200) following the manufacturer protocol. To assess activity, the colorimetric chance was measured at 405 nm and the results expressed as a fold change over untreated controls.

Turning to TGF-b, the “HA secretion Fold Change” value was determined as 2.54 fold.
